Laboratory results taken from patent publication US20100311714A1, “1H-IMIDAZO[4,5-c]QUINOLINONE COMPOUNDS” (priority 2009, published 2010).
≈ marks a conversion by molar mass, not a printed value. Where two headings read alike, the source gives them in different places.

Columns and labels:
PI3K beta = biological target: T1, PI3K beta (Homo sapiens, UniProt P42338); experiment: PI3K beta kinase assay (Kinase-Glo luminescence); type: biochemical
T1 construct: for the full-length p110-b subunit are generated and fused by overlapping PCR; His tag (C); made in house; host or cells: baculovirus BV949; Tn5 (Trichoplusia ni) or TiniPro insect cells
Method in brief: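 Kinase-Glo luminescence read out ATP left after a 60-min room-temperature reaction, started with ATP (1 μM final) on 25 nM His-tagged p85 iSH2–p110β (BV949) plus 10 μg/mL PI substrate in pH 7.5 Tris buffer. Percent inhibition at eight concentrations was fitted to a four-parameter logistic model for IC50.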

mTOR = biological target: T2, mTOR (Homo sapiens, UniProt P42345); experiment: Biochemical assay for m-TOR by TR-FRET
T2 construct: purchased Invitrogen Corporation (Carlsbad/Calif., USA) PV4753
Method in brief: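 mTOR (0.5 nM) phosphorylates GFP-4EBP1 (400 nM) with 8 μM ATP at rt in 50 mM HEPES pH 7.5, 10 mM MnCl2, 50 mM NaCl, 1 mM EGTA, 1 mM DTT; compounds 0.003–10 μM final. EDTA stop with Tb-anti-p4EBP1[pT46] antibody (0.5 nM); TR-FRET read after 15 min against no-enzyme and vehicle controls.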

[1] = High-throughput equilibrium solubility at pH 6.8; type: physicochemical; conditions: pH 6.8, aqueous buffer, thermodynamic from solid; read-out: HT-Eq Sol/pH 6.8
Method in brief: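 Following the procedure of Zhou et al. (2007), compound solubility was determined at pH 6.8.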

[2] = Parallel Artificial Membrane Permeability Assay (PAMPA) at pH 6.8; type: physicochemical
Method in brief: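 Reported as log Pe, membrane permeability was determined by parallel artificial membrane assay at pH 6.8 per Wohnsland–Faller.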

T1 sequence (P42338 with tags, fused parts or gaps limits assumed): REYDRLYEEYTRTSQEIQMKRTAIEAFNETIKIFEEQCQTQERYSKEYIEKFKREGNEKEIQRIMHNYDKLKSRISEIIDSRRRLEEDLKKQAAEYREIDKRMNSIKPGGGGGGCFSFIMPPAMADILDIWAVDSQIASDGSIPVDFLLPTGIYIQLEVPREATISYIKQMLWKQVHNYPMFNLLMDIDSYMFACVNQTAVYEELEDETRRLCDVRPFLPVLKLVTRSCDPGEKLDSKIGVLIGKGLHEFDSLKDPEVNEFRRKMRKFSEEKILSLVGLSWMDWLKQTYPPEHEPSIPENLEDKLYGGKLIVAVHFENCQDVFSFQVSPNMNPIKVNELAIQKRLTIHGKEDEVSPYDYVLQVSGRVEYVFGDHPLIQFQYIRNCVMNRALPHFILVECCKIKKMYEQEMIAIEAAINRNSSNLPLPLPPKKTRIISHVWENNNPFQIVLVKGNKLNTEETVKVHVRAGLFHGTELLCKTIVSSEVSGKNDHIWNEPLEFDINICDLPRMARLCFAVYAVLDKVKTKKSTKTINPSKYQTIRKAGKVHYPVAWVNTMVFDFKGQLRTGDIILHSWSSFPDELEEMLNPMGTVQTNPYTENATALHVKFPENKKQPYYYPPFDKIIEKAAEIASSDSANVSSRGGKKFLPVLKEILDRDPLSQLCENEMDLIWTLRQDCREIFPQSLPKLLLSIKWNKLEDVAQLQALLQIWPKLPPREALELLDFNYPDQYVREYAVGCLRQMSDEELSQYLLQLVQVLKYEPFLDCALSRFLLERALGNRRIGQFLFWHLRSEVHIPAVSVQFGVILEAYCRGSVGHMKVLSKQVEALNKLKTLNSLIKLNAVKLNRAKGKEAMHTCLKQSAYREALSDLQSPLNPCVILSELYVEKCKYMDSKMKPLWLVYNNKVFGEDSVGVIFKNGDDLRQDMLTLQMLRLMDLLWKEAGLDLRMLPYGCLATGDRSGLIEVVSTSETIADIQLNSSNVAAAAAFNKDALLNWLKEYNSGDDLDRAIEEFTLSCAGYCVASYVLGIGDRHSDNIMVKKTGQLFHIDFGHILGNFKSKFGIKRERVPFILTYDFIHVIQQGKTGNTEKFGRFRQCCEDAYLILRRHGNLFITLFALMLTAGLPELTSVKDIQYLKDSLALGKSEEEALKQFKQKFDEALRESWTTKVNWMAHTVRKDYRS
T2 sequence (P42345 1360-2549 limits assumed): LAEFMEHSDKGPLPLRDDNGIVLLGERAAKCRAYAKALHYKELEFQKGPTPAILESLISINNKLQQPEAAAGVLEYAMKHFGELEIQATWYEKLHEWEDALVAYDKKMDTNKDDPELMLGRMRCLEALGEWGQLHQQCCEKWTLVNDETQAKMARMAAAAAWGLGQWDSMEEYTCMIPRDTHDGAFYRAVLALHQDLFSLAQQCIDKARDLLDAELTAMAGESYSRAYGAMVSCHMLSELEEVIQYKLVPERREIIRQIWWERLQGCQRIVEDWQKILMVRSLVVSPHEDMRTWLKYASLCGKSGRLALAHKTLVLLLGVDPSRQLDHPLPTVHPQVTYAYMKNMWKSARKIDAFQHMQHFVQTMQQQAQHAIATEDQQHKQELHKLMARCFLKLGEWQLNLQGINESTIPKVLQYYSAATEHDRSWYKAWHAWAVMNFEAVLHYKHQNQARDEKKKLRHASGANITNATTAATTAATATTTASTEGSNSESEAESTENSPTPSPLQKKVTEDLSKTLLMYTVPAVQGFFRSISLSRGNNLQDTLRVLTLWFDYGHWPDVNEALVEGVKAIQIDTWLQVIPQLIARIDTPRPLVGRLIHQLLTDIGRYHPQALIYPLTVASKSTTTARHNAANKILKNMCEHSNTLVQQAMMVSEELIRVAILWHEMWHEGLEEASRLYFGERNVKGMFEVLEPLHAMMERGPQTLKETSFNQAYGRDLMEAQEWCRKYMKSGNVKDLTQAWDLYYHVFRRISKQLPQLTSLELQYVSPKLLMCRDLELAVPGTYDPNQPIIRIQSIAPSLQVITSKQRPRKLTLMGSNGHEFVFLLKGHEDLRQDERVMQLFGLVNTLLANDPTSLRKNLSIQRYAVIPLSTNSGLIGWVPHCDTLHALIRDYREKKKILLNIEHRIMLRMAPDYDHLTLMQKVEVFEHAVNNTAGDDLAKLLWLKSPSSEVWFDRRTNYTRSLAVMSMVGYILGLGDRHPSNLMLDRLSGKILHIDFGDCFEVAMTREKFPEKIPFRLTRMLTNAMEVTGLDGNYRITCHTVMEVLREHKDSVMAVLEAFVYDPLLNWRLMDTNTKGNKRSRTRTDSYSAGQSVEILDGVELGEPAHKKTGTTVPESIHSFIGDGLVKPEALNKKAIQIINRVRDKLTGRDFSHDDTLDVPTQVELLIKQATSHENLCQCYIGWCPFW

| SMILES | IC50 (PI3K beta; read-out: EPK_PI3Kbeta/IC50) | IC50 (mTOR; read-out: EPK_mTOR/IC50) | solubility thermodynamic [1] | HT-Perm logPe pH6.8 [2] | IC50 (PI3K beta; read-out: PI3Kbeta/IC50) | IC50 (mTOR; read-out: mTOR/IC50) | HT-perm/logPe pH6.8 [2] |
| --- | --- | --- | --- | --- | --- | --- | --- |
| CCNc1ncc(-c2ccc3ncc4c(c3c2)n(-c2ccc(N3CC[C@@H](O)C3)nc2C)c(=O)n4C)cc1C(F)(F)F [Example 34.2, 8-(6-Ethylamino-5-trifluoromethyl-pyridin-3-yl)-1-[6-((R)-3-hydroxy-pyrrolidin-1-yl)-2-methyl-pyridin-3-yl]-3-methyl-1,3-dihydro-imidazo[4,5-c]quinolin-2-one] | 134 nM | 36 nM | 23 µg/mL (≈ 40.8 µM) | −3.9 | – | – | – |
| CNc1ncc(-c2ccc3ncc4c(c3c2)n(-c2ccc(N3CC(F)(F)C3)nc2C)c(=O)n4C)cn1 [Example 24.1, 1-[6-(3,3-Difluoro-azetidin-1-yl)-2-methyl-pyridin-3-yl]-3-methyl-8-(2-methylamino-pyrimidin-5-yl)-1,3-dihydro-imidazo[4,5-c]quinolin-2-one] | 1010 nM | 21 nM | 59 µg/mL (≈ 121 µM) | −3.9 | – | – | – |
| CCNc1cc(-c2ccc3ncc4c(c3c2)n(-c2ccc(N3CC(O)C3)nc2C)c(=O)n4C)cnc1CO [Example 29.2, 8-(5-Ethylamino-6-hydroxymethyl-pyridin-3-yl)-1-[6-(3-hydroxy-azetidin-1-yl)-2-methyl-pyridin-3-yl]-3-methyl-1,3-dihydro-imidazo[4,5-c]quinolin-2-one] | 677 nM | 5 nM | 57 µg/mL (≈ 111 µM) | −7.1 | – | – | – |
| Cc1nc(N2CCN(C)C(=O)C2)ccc1-n1c(=O)n(C)c2cnc3ccc(-c4cnc(N)c(C(F)(F)F)c4)cc3c21 [Example 21.1, 8-(6-Amino-5-trifluoromethyl-pyridin-3-yl)-3-methyl-1-[2-methyl-6-(4-methyl-3-oxo-piperazin-1-yl)-pyridin-3-yl]-1,3-dihydro-imidazo[4,5-c]quinolin-2-one] | 9 nM | < 3 nM | 22 µg/mL (≈ 39.1 µM) | −6.1 | – | – | – |
| CNc1ncc(-c2ccc3ncc4c(c3c2)n(-c2ccc(N3CC[C@H](O)C3)nc2C)c(=O)n4C)cc1C(F)(F)F [Example 32.5, 1-[6-((S)-3-Hydroxy-pyrrolidin-1-yl)-2-methyl-pyridin-3-yl]-3-methyl-8-(6-methylamino-5-trifluoromethyl-pyridin-3-yl)-1,3-dihydro-imidazo[4,5-c]quinolin-2-one] | 37 nM | 9 nM | 49 µg/mL (≈ 89.2 µM) | −4.5 | – | – | – |
| CCOc1ncc(-c2ccc3ncc4c(c3c2)n(-c2cccnc2C)c(=O)n4C)cn1 [Example 2.5, 8-(2-Ethoxy-pyrimidin-5-yl)-3-methyl-1-(2-methyl-pyridin-3-yl)-1,3-dihydro-imidazo[4,5-c]quinolin-2-one] | – | – | 48 µg/mL (≈ 116 µM) | – | 749 nM | 166 nM | −4.0 |
| CNc1ncc(-c2ccc3ncc4c(c3c2)n(-c2ccc(C(C)(C)O)nc2C)c(=O)n4C)cc1F [Example 31.1, 8-(5-Fluoro-6-methylamino-pyridin-3-yl)-1-[6-(1-hydroxy-1-methyl-ethyl)-2-methyl-pyridin-3-yl]-3-methyl-1,3-dihydro-imidazo[4,5-c]quinolin-2-one] | 217 nM | 21 nM | 3 µg/mL (≈ 6.35 µM) | −4.1 | – | – | – |
| Cc1nc(C(C)(C)O)ccc1-n1c(=O)n(C)c2cnc3ccc(-c4cncc(C(C)(C)C#N)c4)cc3c21 [Example 31.6, 2-(5-{1-[6-(1-Hydroxy-1-methyl-ethyl)-2-methyl-pyridin-3-yl]-3-methyl-2-oxo-2,3-dihydro-1H-imidazo[4,5-c]quinolin-8-yl}-pyridin-3-yl)-2-methyl-propionitrile] | 25 nM | 95 nM | 3 µg/mL (≈ 6.09 µM) | −4.4 | – | – | – |
| COc1ccc(-c2ccc3ncc4c(c3c2)n(-c2cnccc2C)c(=O)n4C)cn1 [Example 4.3, 8-(6-Methoxy-pyridin-3-yl)-3-methyl-1-(4-methyl-pyridin-3-yl)-1,3-dihydro-imidazo[4,5-c]quinolin-2-one] | – | – | 129 µg/mL (≈ 325 µM) | – | 601 nM | 442 nM | −3.7 |
